Measurements published in patent US10112929B2, “Lactams as inhibitors of rock” (BRISTOL-MYERS SQUIBB COMPANY, priority 2015, dated 2018).

Molecular target: ROCK2 (Homo sapiens (Human), UniProt O75116)
Experiment: biochemical
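Further: rho kinase enzyme reaction halted with EDTA, phospho- and non-phospho peptide separated for read-out, kinase activity inhibition derived across a dose-response series, DMSO under 2%.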

Sequence of ROCK2 (O75116 whole entry, species assumed): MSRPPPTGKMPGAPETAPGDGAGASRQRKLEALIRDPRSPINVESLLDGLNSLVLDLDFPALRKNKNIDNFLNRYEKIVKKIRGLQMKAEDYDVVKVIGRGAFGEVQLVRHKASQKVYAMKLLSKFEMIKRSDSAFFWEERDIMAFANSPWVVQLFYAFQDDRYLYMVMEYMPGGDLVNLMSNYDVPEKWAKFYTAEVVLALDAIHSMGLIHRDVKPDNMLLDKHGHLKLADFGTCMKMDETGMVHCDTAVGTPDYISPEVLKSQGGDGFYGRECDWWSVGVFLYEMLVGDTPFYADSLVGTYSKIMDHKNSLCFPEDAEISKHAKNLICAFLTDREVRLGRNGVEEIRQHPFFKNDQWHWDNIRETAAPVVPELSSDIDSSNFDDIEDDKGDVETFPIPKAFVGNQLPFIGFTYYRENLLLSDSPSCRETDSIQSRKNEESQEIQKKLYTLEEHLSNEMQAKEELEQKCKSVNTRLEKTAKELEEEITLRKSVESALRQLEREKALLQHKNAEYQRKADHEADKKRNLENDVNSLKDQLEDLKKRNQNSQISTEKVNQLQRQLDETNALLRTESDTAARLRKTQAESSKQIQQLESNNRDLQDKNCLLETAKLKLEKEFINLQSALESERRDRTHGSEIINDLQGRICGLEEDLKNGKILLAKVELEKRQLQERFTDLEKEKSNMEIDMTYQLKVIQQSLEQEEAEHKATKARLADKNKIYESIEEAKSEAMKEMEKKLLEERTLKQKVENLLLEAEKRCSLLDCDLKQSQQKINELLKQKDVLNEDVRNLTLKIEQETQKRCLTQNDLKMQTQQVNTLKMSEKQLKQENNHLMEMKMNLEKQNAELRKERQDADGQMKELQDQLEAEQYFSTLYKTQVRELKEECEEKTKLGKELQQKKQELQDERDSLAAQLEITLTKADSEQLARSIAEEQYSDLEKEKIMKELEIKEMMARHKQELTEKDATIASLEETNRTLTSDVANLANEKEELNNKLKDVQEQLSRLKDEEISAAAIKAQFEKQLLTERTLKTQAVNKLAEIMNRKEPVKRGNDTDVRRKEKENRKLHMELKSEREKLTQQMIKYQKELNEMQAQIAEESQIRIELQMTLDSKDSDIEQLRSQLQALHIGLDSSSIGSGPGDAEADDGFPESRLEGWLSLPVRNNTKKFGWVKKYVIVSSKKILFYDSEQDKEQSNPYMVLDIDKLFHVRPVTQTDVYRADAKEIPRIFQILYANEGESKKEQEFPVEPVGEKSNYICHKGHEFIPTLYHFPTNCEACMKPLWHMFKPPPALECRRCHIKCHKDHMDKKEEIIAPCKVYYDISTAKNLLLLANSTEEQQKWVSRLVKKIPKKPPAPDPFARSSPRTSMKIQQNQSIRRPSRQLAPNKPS

Structure (SMILES)	IC50 [nM]
COc1ccc(NC2CCN(c3ccc(-c4cn[nH]c4)c(Cl)c3)C2=O)cc1F (single isomer, unassigned) [Example 156, 1-(3-chloro-4-(1H-pyrazol-4-yl)phenyl)-3 ((3-fluoro-4-methoxyphenyl)amino) pyrrolidin-2-one]	100 to 2200
COc1cc(F)cc(NC2CCN(c3ccc(-c4cn[nH]c4)c(Cl)c3)C2=O)c1 (single isomer, unassigned) [Example 158, 1-(3-chloro-4-(1H-pyrazol-4-yl)phenyl)-3 ((3-fluoro-5-methoxyphenyl)amino) pyrrolidin-2-one]	100 to 2200
COc1cc(NC2CCN(c3ccc(-c4cn[nH]c4)cc3Cl)C2=O)ccc1F (single isomer, unassigned) [Example 162, 1-(2-chloro-4-(1H-pyrazol-4-yl)phenyl)-3-((4-fluoro-3-methoxyphenyl)amino) pyrrolidin-2-one]	100 to 2200
COc1cccc(NC2CCN(c3ccc(-c4cn[nH]c4)cc3Cl)C2=O)c1 (single isomer, unassigned) [Example 166, 1-(2-chloro-4-(1H-pyrazo1-4-yl)phenyl)-3 ((3-methoxyphenyl)amino)pyrrolidin-2-one]	100 to 2200
COc1cc(F)cc(NC2CCN(c3ccc(-c4cn[nH]c4)cc3Cl)C2=O)c1 (single isomer, unassigned) [Example 168, 1-(2-chloro-4-(1H-pyrazol-4-yl)phenyl)-3 ((3-fluoro-5-methoxyphenyl)amino) pyrrolidin-2-one]	100 to 2200
COc1cccc(NC2CCN(c3ccc(-c4cn[nH]c4)c(C(F)F)c3)C2=O)c1 (single isomer, unassigned) [Example 175, 1-(3-(difluoromethyl)-4-(1H-pyrazol-4-yl)phenyl)-3-((3-methoxyphenyl)amino) pyrrolidin-2-one]	100 to 2200
COc1cccc(NC2CCN(c3ccc(-c4cn[nH]c4)c(C(F)F)c3)C2=O)c1 (single isomer, unassigned) [Example 176, 1-(3-(difluoromethyl)-4-(1H-pyrazol-4-yl)phenyl)-3-((3-methoxyphenyl)amino) pyrrolidin-2-one]	10 to 100
COc1cc(F)cc(NC2CCN(c3ccc(-c4cn[nH]c4)c(C(F)F)c3)C2=O)c1 (single isomer, unassigned) [Example 177, 1-(3-(difluoromethyl)-4-(1H-pyrazol-4-yl)phenyl)-3-((3-fluoro-5-methoxyphenyl)amino)pyrrolidin-2-one]	100 to 2200
COc1cc(F)cc(NC2CCN(c3ccc(-c4cn[nH]c4)c(C(F)F)c3)C2=O)c1 (single isomer, unassigned) [Example 178, 1-(3-(difluoromethyl)-4-(1H-pyrazol-4-yl)phenyl)-3-((3-fluoro-5-methoxyphenyl)amino)pyrrolidin-2-one]	10 to 100
COc1cc(NC2CCN(c3ccc(-c4cn[nH]c4)c(C(F)F)c3)C2=O)ccc1F (single isomer, unassigned) [Example 179, 1-(3-(difluoromethyl)-4-(1H-pyrazol-4-yl)phenyl)-3-((4-fluoro-3-methoxyphenyl)amino)pyrrolidin-2-one]	10 to 100
COc1cc(NC2CCN(c3ccc(-c4cn[nH]c4)c(C(F)F)c3)C2=O)ccc1F (single isomer, unassigned) [Example 180, 1-(3-(difluoromethyl)-4-(1H-pyrazol-4-yl)phenyl)-3-((4-fluoro-3-methoxyphenyl)amino)pyrrolidin-2-one]	100 to 2200
COCc1cc(N2CCC(Nc3ccc(F)c(OC)c3)C2=O)ccc1-c1cn[nH]c1 (single isomer, unassigned) [Example 181, 3-((4-fluoro-3-methoxyphenyl)amino)-1-(3-(methoxymethyl)-4-(1H-pyrazol-4-yl)phenyl)pyrrolidin-2-one]	100 to 2200
COCc1cc(N2CCC(Nc3cccc(OC)c3)C2=O)ccc1-c1cn[nH]c1 (single isomer, unassigned) [Example 183, 1-(3-(methoxymethyl)-4-(1H-pyrazol-4-yl)phenyl)-3-((3-methoxyphenyl)amino) pyrrolidin-2-one]	100 to 2200
COCc1cc(N2CCC(Nc3cccc(OC)c3)C2=O)ccc1-c1cn[nH]c1 (single isomer, unassigned) [Example 184, 1-(3-(methoxymethyl)-4-(1H-pyrazol-4-yl)phenyl)-3-((3-methoxyphenyl)amino) pyrrolidin-2-one]	10 to 100
COCc1cc(N2CCC(Nc3cc(F)cc(OC)c3)C2=O)ccc1-c1cn[nH]c1 (single isomer, unassigned) [Example 185, 3-((3-fluoro-5-methoxyphenyl)amino)-1-(3-(methoxymethyl)-4-(1H-pyrazol-4-yl)phenyl)pyrrolidin-2-one]	100 to 2200
COCc1cc(N2CCC(Nc3cc(F)cc(OC)c3)C2=O)ccc1-c1cn[nH]c1 (single isomer, unassigned) [Example 186, 3-((3-fluoro-5-methoxyphenyl)amino)-1-(3-(methoxymethyl)-4-(1H-pyrazol-4-yl)phenyl)pyrrolidin-2-one]	10 to 100
COc1cccc(NC2CCN(c3ccc(-c4cn[nH]c4)c(C)n3)C2=O)c1 (single isomer, unassigned) [Example 188, 3-((3-methoxyphenyl)amino)-1-(6-methyl-5-(1H-pyrazol-4-yl)pyridin-2-yl)pyrrolidin-2-one]	10 to 100
Cc1nc(N2CCC(Nc3cccc(OCC4CC4)c3)C2=O)ccc1-c1cn[nH]c1 (single isomer, unassigned) [Example 190, 3-((3-(cyclopropylmethoxy)phenyl)amino)-1-(6-methyl-5-(1H-pyrazol-4-yl)pyridin-2-yl)pyrrolidin-2-one]	10 to 100
COc1cc(F)cc(NC2CCN(c3ccc(-c4cn[nH]c4)c(C)n3)C2=O)c1 (single isomer, unassigned) [Example 192, 3-((3-fluoro-5-methoxyphenyl)amino)-1-(6-methyl-5-(1H-pyrazol-4-yl)pyridin-2-yl)pyrrolidin-2-one]	10 to 100
COc1cc(NC2CCN(c3ccc(-c4cn[nH]c4)c(C)n3)C2=O)ccc1F (single isomer, unassigned) [Example 194, 3-((4-fluoro-3-methoxyphenyl)amino)-1-(6-methyl-5-(1H-pyrazol-4-yl)pyridin-2-yl)pyrrolidin-2-one]	10 to 100

Second part, the compound after the results:

IC50 [nM]	Structure (SMILES)
< 10	COc1cc(NC2CCN(c3ccc(-c4cn[nH]c4)c(OC)c3)C2=O)ccc1F (single isomer, unassigned) [Example 155, 3-((4-fluoro-3-methoxyphenyl)amino)-1-(3-methoxy-4-(1H-pyrazol-4-yl)phenyl) pyrrolidin-2-one]
10 to 100	COc1cc(NC2CCN(c3ccc(-c4cn[nH]c4)c(Cl)c3)C2=O)ccc1F (single isomer, unassigned) [Example 160, 1-(3-chloro-4-(1H-pyrazol-4-yl)phenyl)-3-((4-fluoro-3-methoxyphenyl)amino) pyrrolidin-2-one]
< 10	COc1cc(NC2CCN(c3ccc(-c4cn[nH]c4)c(Cl)c3)C2=O)ccc1F (single isomer, unassigned) [Example 161, 1-(3-chloro-4-(1H-pyrazol-4-yl)phenyl)-3-((4-fluoro-3-methoxyphenyl)amino) pyrrolidin-2-one]
< 10	COc1cccc(NC2CCN(c3ccc(-c4cn[nH]c4)c(Cl)c3)C2=O)c1 (single isomer, unassigned) [Example 164, 1-(3-chloro-4-(1H-pyrazo1-4-yl)phenyl)-3 ((3-methoxyphenyl)amino)pyrrolidin-2-one]
10 to 100	COc1cccc(NC2CCN(c3ccc(-c4cn[nH]c4)c(Cl)c3)C2=O)c1 (single isomer, unassigned) [Example 165, 1-(3-chloro-4-(1H-pyrazo1-4-yl)phenyl)-3 ((3-methoxyphenyl)amino)pyrrolidin-2-one]
10 to 100	COc1cccc(OC2CCN(c3ccc(-c4cn[nH]c4)c(OC)n3)C2=O)c1 (single isomer, unassigned) [Example 170, 1-(6-methoxy-5-(1H-pyrazol-4-yl)pyridin 2-yl)-3-(3-methoxyphenoxy)pyrrolidin-2-one]
< 10	COc1cccc(OC2CCN(c3ccc(-c4cn[nH]c4)c(OC)n3)C2=O)c1 (single isomer, unassigned) [Example 171, 1-(6-methoxy-5-(1H-pyrazol-4-yl)pyridin 2-yl)-3-(3-methoxyphenoxy)pyrrolidin-2-one]
10 to 100	COc1cc(F)cc(OC2CCN(c3ccc(-c4cn[nH]c4)c(OC)n3)C2=O)c1 (single isomer, unassigned) [Example 172, 3-(3-fluoro-5-methoxyphenoxy)-1-(6-methoxy-5-(1H-pyrazol-4-yl)pyridin-2-yl)pyrrolidin-2-one]
< 10	COc1cc(F)cc(OC2CCN(c3ccc(-c4cn[nH]c4)c(OC)n3)C2=O)c1 (single isomer, unassigned) [Example 173, 3-(3-fluoro-5-methoxyphenoxy)-1-(6-methoxy-5-(1H-pyrazol-4-yl)pyridin-2-yl)pyrrolidin-2-one]
< 10	COc1cccc(NC2CCN(c3ccc(-c4cn[nH]c4)c(C)n3)C2=O)c1 (single isomer, unassigned) [Example 189, 3-((3-methoxyphenyl)amino)-1-(6-methyl-5-(1H-pyrazol-4-yl)pyridin-2-yl)pyrrolidin-2-one]
< 10	COc1cc(F)cc(NC2CCN(c3ccc(-c4cn[nH]c4)c(C)n3)C2=O)c1 (single isomer, unassigned) [Example 193, 3-((3-fluoro-5-methoxyphenyl)amino)-1-(6-methyl-5-(1H-pyrazol-4-yl)pyridin-2-yl)pyrrolidin-2-one]
< 10	COc1cccc(NC2CCN(c3ccc(-c4cn[nH]c4)c(OC)n3)C2=O)c1 (single isomer, unassigned) [Example 196, 1-(6-methoxy-5-(1H-pyrazol-4-yl)pyridin-2-yl)-3-((3-methoxyphenyl)amino) pyrrolidin-2-one]
< 10	COc1cc(F)cc(NC2CCN(c3ccc(-c4cn[nH]c4)c(OC)n3)C2=O)c1 (single isomer, unassigned) [Example 198, 3-((3-fluoro-5-methoxyphenyl)amino)-1-(6-methoxy-5-(1H-pyrazol-4-yl)pyridin-2 yl)pyrrolidin-2-one]
